In patent US9751878B2, “Tetrahydronaphthyridine somatostatin receptor 5 antagonists” (Takeda Pharmaceutical Company Limited, priority 2013, dated 2017) one finds inhibition data, which are given here for 21 compounds.

By inhibition is commonly meant the drop in the measured response relative to a control, in per cent.

The target in this experiment is T1, human SSTR5 (Homo sapiens, UniProt P35346).
T1 construct: expressed in transfected cells
T1 sequence (P35346 whole entry): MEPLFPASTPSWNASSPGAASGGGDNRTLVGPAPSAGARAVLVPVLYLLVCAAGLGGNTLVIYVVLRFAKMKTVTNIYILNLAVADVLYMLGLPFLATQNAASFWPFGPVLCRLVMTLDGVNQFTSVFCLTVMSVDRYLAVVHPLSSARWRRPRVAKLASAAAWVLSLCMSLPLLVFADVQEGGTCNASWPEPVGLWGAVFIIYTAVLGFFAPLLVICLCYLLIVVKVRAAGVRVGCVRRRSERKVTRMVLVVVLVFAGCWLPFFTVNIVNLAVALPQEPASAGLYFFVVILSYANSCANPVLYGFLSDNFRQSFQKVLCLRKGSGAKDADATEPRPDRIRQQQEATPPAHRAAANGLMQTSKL
Nature of the experiment: Evaluation of human SSTR5 antagonist activity using intracellular cAMP concentration as index. The conditions noted are these: 1 μM test compound; CHO (dhfr-) cells stably expressing human SSTR5; 0.1 nM somatostatin 28, 0.3 μM forskolin; cAMP HTRF; read-out: Inhibition rate against SSTR5 at 1 μM. In kind it is cell-based. The method, then:
Evaluation of Human SSTR5 Antagonist Activity Using Intracellular cAMP Concentration as Index
The intracellular cAMP concentration was measured using HTRF cAMP dynamic 2 kit (Cisbio Bioassays). Each test compound diluted with an assay buffer (HBSS (Invitrogen Corp.) containing 5 mM HEPES (pH 7.5) (Invitrogen Corp.), 0.1% fatty-acid free BSA (Sigma-Aldrich Corp.), and 500 μM IBMX (Wako Pure Chemical Industries, Ltd.)) was added at a concentration of 2 μL/well to a 384-well white plate (Greiner Bio-One Co., Ltd.) to give the final concentration of 1 μM. A frozen stock of CHO (dhfr-) cells stably expressing the human SSTR5 gene (Accession No. NM_001053) was thawed in a thermostat bath of 37° C. and suspended in a subculture medium (MEM alpha (Wako Pure Chemical Industries, Ltd.), 10% dialyzed serum (Gemini Bio-Products), and 50 μg/mL gentamicin (Invitrogen Corp.). After centrifugation of the cell suspension, the cells were resuspended in an assay buffer and added at a concentration of 2 μL/well (about 4,000 cells/well) to the plate. The compound and the cells were incubated for 15 minutes, and then, an assay buffer containing 0.1 nM (final concentration) somatostatin 28 (Toray Research Center) and 0.3 μM (final concentration) forskolin (Wako Pure Chemical Industries, Ltd.) was added thereto at a concentration of 2 μL/well, followed by incubation at room temperature for 30 minutes. cAMP-d2 and anti-cAMP-cryptate were each added thereto at a concentration of 3 μL/well. The plate was left standing at room temperature for 60 minutes. Then, the fluorescence resonance energy transfer (FRET) intensity was measured using Multi-label reader Envision (PerkinElmer). The FRET intensity of the wells supplemented with the test compound group was converted to a cAMP concentration using a calibration curve prepared from the FRET intensity of a well group containing an assay buffer supplemented with an arbitrary concentration of cAMP. The inhibitory activity of each compound was calculated according to the following expression: Inhibitory activity (%)=(C−B)/(A−B)×100 A: cAMP concentration calculated from the wells supplemented with 0.3 μM forskolin B: cAMP concentration calculated from the wells supplemented with 0.3 μM forskolin and 0.1 nM somatostatin 28 C: cAMP concentration calculated from the wells supplemented with 0.3 μM forskolin, 0.1 nM somatostatin 28, and 1 μM test compound
Take `CCOc1cc(-c2ccc(F)cc2)c(C2CC2)cc1CN1CCC(N2CCc3ccc(C(=O)O)nc3C2=O)CC1` [Example 31, 7-(1-((2-Cyclopropyl-5-ethoxy-4′-fluorobiphenyl-4-yl)methyl)piperidin-4-yl)-8-oxo-5,6,7,8-tetrahydro-1,7-naphthyridine-2-carboxylic acid]: the inhibition at 1 µM is 118%.

In the case of `CCOc1cc(-c2ccc(F)cc2F)c(C2CC2)cc1CN1CCC(N2CCc3nc(COC)c(C(=O)O)cc3C2=O)CC1` [Example 48, 6-(1-((2-Cyclopropyl-5-ethoxy-2′,4′-difluorobiphenyl-4-yl)methyl)piperidin-4-yl)-2-(methoxymethyl)-5-oxo-5,6,7,8-tetrahydro-1,6-naphthyridine-3-carboxylic acid], the inhibition at 1 µM came to 99%.

For the compound `CCCc1nc2c(cc1C(=O)O)C(=O)N(C1CCN(Cc3cc(C4CC4)c(-c4ccc(F)c(F)c4)cc3OC(C)C)CC1)CC2` [Example 39, 6-(1-((2-Cyclopropyl-3′,4′-difluoro-5-isopropoxybiphenyl-4-yl)methyl)piperidin-4-yl)-5-oxo-2-propyl-5,6,7,8-tetrahydro-1,6-naphthyridine-3-carboxylic acid], the inhibition at 1 µM was found to be 112%.

Consider `CCOc1cc(CN2CCC(N3CCc4nc(C)c(C(=O)O)cc4C3=O)CC2)cc(C2CC2)c1-c1ccc(F)cc1` [Example 1, 6-(1-((2-Cyclopropyl-6-ethoxy-4′-fluorobiphenyl-4-yl)methyl)piperidin-4-yl)-2-methyl-5-oxo-5,6,7,8-tetrahydro-1,6-naphthyridine-3-carboxylic acid], for which the inhibition at 1 µM is 91%.

Turning to `CCOc1cc(-c2ccc(F)cc2)c(C2CC2)cc1CN1CCC(N2CCc3nc(C(C)C)c(C(=O)O)cc3C2=O)CC1` [Example 49, 6-(1-((2-Cyclopropyl-5-ethoxy-4′-fluorobiphenyl-4-yl)methyl)piperidin-4-yl)-2-isopropyl-5-oxo-5,6,7,8-tetrahydro-1,6-naphthyridine-3-carboxylic acid], the inhibition at 1 µM was 91%.

Consider `CCCc1nc2c(cc1C(=O)O)C(=O)N(C1CCN(Cc3cc(OCC)c(-c4ccc(F)c(F)c4)c(C4CC4)c3)CC1)CC2` [Example 62, 6-(1-((2-Cyclopropyl-6-ethoxy-3′,4′-difluorobiphenyl-4-yl)methyl)piperidin-4-yl)-5-oxo-2-propyl-5,6,7,8-tetrahydro-1,6-naphthyridine-3-carboxylic acid], for which the inhibition at 1 µM is 92%.

For `CCCc1nc2c(cc1C(=O)O)C(=O)N(C1CCN(Cc3cc(C4CC4)c(-c4ccc(F)cc4F)c(F)c3OC)CC1)CC2` [Example 65, 6-(1-((6-Cyclopropyl-2,2′,4′-trifluoro-3-methoxybiphenyl-4-yl)methyl)piperidin-4-yl)-5-oxo-2-propyl-5,6,7,8-tetrahydro-1,6-naphthyridine-3-carboxylic acid], the inhibition at 1 µM was 86%.

Take `CCCOc1cc(CN2CCC(N3CCc4nc(CCC)c(C(=O)O)cc4C3=O)CC2)cc(C2CC2)c1-c1ccc(F)cc1` [Example 61, 6-(1-((2-Cyclopropyl-4′-fluoro-6-propoxybiphenyl-4-yl)methyl)piperidin-4-yl)-5-oxo-2-propyl-5,6,7,8-tetrahydro-1,6-naphthyridine-3-carboxylic acid]: the inhibition at 1 µM stood at 96%.

For `CCOc1cc(-c2ccc(F)cc2)c(C2CC2)cc1CN1CCC(N2CCc3nc(C)c(C(=O)O)cc3C2=O)CC1` [Example 5, 6-(1-((2-Cyclopropyl-5-ethoxy-4′-fluorobiphenyl-4-yl)methyl)piperidin-4-yl)-2-methyl-5-oxo-5,6,7,8-tetrahydro-1,6-naphthyridine-3-carboxylic acid], the inhibition at 1 µM amounted to 132%.

Regarding `CCOc1cc(CN2CCC(N3CCc4ncc(C(=O)O)cc4C3=O)C2)cc(OCC)c1-c1ccc(F)cc1` (stereo not drawn) [Example 34, 6-(1-((2,6-Diethoxy-4′-fluorobiphenyl-4-yl)methyl)pyrrolidin-3-yl)-5-oxo-5,6,7,8-tetrahydro-1,6-naphthyridine-3-carboxylic acid], the inhibition at 1 µM was 102%.

Turning to `CCOc1cc(CN2CCC(N3CCc4nc(C(=O)O)ccc4C3=O)CC2)cc(OCC)c1-c1ccc(F)cc1` [Example 53, 6-(1-((2,6-Diethoxy-4′-fluorobiphenyl-4-yl)methyl)piperidin-4-yl)-5-oxo-5,6,7,8-tetrahydro-1,6-naphthyridine-2-carboxylic acid], the inhibition at 1 µM was found to be 108%.

For the compound `CCCc1nc2c(cc1C(=O)O)C(=O)N(C1CCN(Cc3cc(C4CC4)c(C4CC4)cc3OCC)CC1)CC2` [Example 51, 6-(1-(4,5-Dicyclopropyl-2-ethoxybenzyl)piperidin-4-yl)-5-oxo-2-propyl-5,6,7,8-tetrahydro-1,6-naphthyridine-3-carboxylic acid], the inhibition at 1 µM came to 103%.

For `CCCc1nc2c(cc1C(=O)O)C(=O)N(C1CCN(Cc3cc(OCC)c(-c4ccc(F)cc4F)c(C4CC4)c3)CC1)CC2` [Example 64, 6-(1-((2-Cyclopropyl-6-ethoxy-2′,4′-difluorobiphenyl-4-yl)methyl)piperidin-4-yl)-5-oxo-2-propyl-5,6,7,8-tetrahydro-1,6-naphthyridine-3-carboxylic acid], the inhibition at 1 µM is 89%.

On to `CCOc1cc(CN2CCC(N3CCc4nc(C)c(C(=O)O)cc4C3=O)CC2)cc(C2CC2)c1-c1ccc(F)c(F)c1` [Example 8, 6-(1-((2-Cyclopropyl-6-ethoxy-3′,4′-difluorobiphenyl-4-yl)methyl)piperidin-4-yl)-2-methyl-5-oxo-5,6,7,8-tetrahydro-1,6-naphthyridine-3-carboxylic acid], for which the inhibition at 1 µM was found to be 97%.

Consider `Cc1nc2c(cc1C(=O)O)C(=O)N(C1CCN(Cc3cc(C4CC4)c(-c4ccc(F)cc4)nc3OC(C)C)CC1)CC2` [Example 6, 6-(1-((5-Cyclopropyl-6-(4-fluorophenyl)-2-isopropoxypyridin-3-yl)methyl)piperidin-4-yl)-2-methyl-5-oxo-5,6,7,8-tetrahydro-1,6-naphthyridine-3-carboxylic acid], for which the inhibition at 1 µM is 88%.

With `CCCc1nc2c(cc1C(=O)O)C(=O)N(C1CCN(Cc3cc(OCC)c(-c4ccc(F)cc4)c(OCC)c3)CC1)CC2` [Example 38, 6-(1-((2,6-Diethoxy-4′-fluorobiphenyl-4-yl)methyl)piperidin-4-yl)-5-oxo-2-propyl-5,6,7,8-tetrahydro-1,6-naphthyridine-3-carboxylic acid], the inhibition at 1 µM was 97%.

Turning to `CCc1nc2c(cc1C(=O)O)C(=O)N(C1CCN(Cc3cc(C4CC4)c(-c4ccc(F)cc4F)c(Cl)c3OC)CC1)CC2` [Example 66, 6-(1-((2-Chloro-6-cyclopropyl-2′,4′-difluoro-3-methoxybiphenyl-4-yl)methyl)piperidin-4-yl)-2-ethyl-5-oxo-5,6,7,8-tetrahydro-1,6-naphthyridine-3-carboxylic acid], the inhibition at 1 µM came out at 64%.

With `CCCc1nc2c(cc1C(=O)O)C(=O)N(C1CCN(Cc3cc(C4CC4)c(-c4ccc(F)cc4F)cc3OC(C)C)CC1)CC2` [Example 40, 6-(1-((2-Cyclopropyl-2′,4′-difluoro-5-isopropoxybiphenyl-4-yl)methyl)piperidin-4-yl)-5-oxo-2-propyl-5,6,7,8-tetrahydro-1,6-naphthyridine-3-carboxylic acid], the inhibition at 1 µM worked out at 148%.

Turning to `CCOc1nc(-c2ccc(F)cc2)c(C2CC2)cc1CN1CCC(N2CCc3nc(CC)c(C(=O)O)cc3C2=O)CC1` [Example 33, 6-(1-((5-Cyclopropyl-2-ethoxy-6-(4-fluorophenyl)pyridin-3-yl)methyl)piperidin-4-yl)-2-ethyl-5-oxo-5,6,7,8-tetrahydro-1,6-naphthyridine-3-carboxylic acid], the inhibition at 1 µM worked out at 123%.

Turning to `CCOc1cc(-c2ccc(F)cc2)c(C2CC2)cc1CN1CCC(N2CCc3nc(C(=O)O)ccc3C2=O)CC1` [Example 54, 6-(1-((2-Cyclopropyl-5-ethoxy-4′-fluorobiphenyl-4-yl)methyl)piperidin-4-yl)-5-oxo-5,6,7,8-tetrahydro-1,6-naphthyridine-2-carboxylic acid], the inhibition at 1 µM was 123%.

In the case of `CCOc1cc(-c2ccc(F)cc2)c(C2CC2)cc1CN1CCC(N2CCc3nc(COC)c(C(=O)O)cc3C2=O)CC1` [Example 47, 6-(1-((2-Cyclopropyl-5-ethoxy-4′-fluorobiphenyl-4-yl)methyl)piperidin-4-yl)-2-(methoxymethyl)-5-oxo-5,6,7,8-tetrahydro-1,6-naphthyridine-3-carboxylic acid], the inhibition at 1 µM is 106%.
